No end group written: not given here.
Test: Ice recrystallisation inhibition (IRI) SPLAT assay
Conditions: 30 min at −8° C., relative to PBS control
Protocol: A series of peptides were tested for IRI activity using a SPLAT assay. Briefly, this involved seeding a large number of small ice crystals, which were annealed for 30 minutes at −8° C., before being photographed. The average crystal size was then measured, relative to a PBS control, with smaller values indicating more IRI activity, FIGS. 3B/1C.
Ice recrystallisation inhibition (IRI) activity was measured using a modified splat assay. A 10 μL sample of polymer dissolved in PBS buffer (pH 7.4) was dropped 1.40 m onto a chilled glass coverslip, resting on a thin aluminium block placed on dry ice. Upon hitting the coverslip, a wafer with diameter of approximately 10 mm and thickness 10 μm was formed instantaneously. The glass coverslip was transferred onto the Linkam cryostage and held at −8° C. under N2 for 30 minutes. Photographs were obtained using an Olympus CX 41 microscope with a UIS-2 20 ×/0.45/∞/0-2/FN22 lens and crossed polarizers (Olympus Ltd, Southend-on-Sea, UK), equipped with a Canon DSLR 500D digital camera. Images were taken of the initial wafer (to ensure that a polycrystalline sample had been obtained) and again after 30 minutes. Image processing was conducting using Image J, which is freely available. In brief, five of the largest ice crystals in the field of view were measured and the single largest length in any axis recorded. The average (mean) of these five measurements was then calculated to find the largest grain dimension along any axis. This was repeated for three individual wafers, and the average (mean) of these three values was calculated to give the mean largest grain size (MLGS). The average value was compared to that of a PBS buffer negative control.

| Compound | IRI activity |
| --- | --- |
| PGlu10: poly(glutamic acid) 10-mer (SEQ ID NO: 18), computationally modelled | no IRI activity |
| poly(proline) | significant IRI activity |
| O=C(O)[C@@H]1CCCN1 [proline, L-proline] | no IRI activity |
| poly(glutamic acid) [PGlu110] | no IRI |
| poly(lysine) (KKKKKKKKKKKKKKKKKKKKKKKKKKKKKKKKKKKKKKKKKKKKKKKKKK; Poly(lysine) with 50 Lys residues) [PLys50] | no IRI |
| poly-L-proline mol wt 1,000-10,000 [PPro10-100] | potent inhibition |

Same assay, conditions: comparison

| Compound | IRI activity compared to another polymer |
| --- | --- |
| poly(proline) | more active than poly(hydroxyproline) |

Test: not given
Conditions: from cited references; cited from earlier work

| Compound | IRI activity (literature) |
| --- | --- |
| Nisin A (ITSISLCTPGCKTGALMGCNMKTATCHCSIHVSK; also: lantibiotic, lanthionine rings and dehydro residues not placed; UniProt P13068 24-57, looked up) [a short antimicrobial peptide] | pH dependent IRI activity |
| poly(hydroxyproline) | potent IRI activity |
